One data set has as its system P. falciparum W2^mef. In words: Multidrug-resistant parasite viability assay (SYBR green), W2mef. Type of data set: cell-based. As to conditions: Plasmodium falciparum, W2, 72 h, read-out: multidrug resistant P. falciparum strains EC50 (SD) W2^mef. The procedure:
(§1) These assays were performed as previously described.[16] P. falciparum 3D7 parasites and resistant lines Dd2, W2mef, 7G8, and artemisinin‐resistant Cambodian isolate (Cam3.I (2539T)), and P. knowlesi YH1, were cultured in human O^+ erythrocytes (RBCs) (Australian Red Cross Blood Service), in RPMI‐HEPES culture medium (pH 7.4, 50 μg/mL hypoxanthine, 25 mM NaHCO3, 20 μg/mL gentamicin, 0.5 % Albumax II (GibcoBRL)) (Thermo Fisher Scientific) and maintained in an atmosphere of 1 % O2, 4 % CO2 and 95 % N2. Parasites were synchronised with 5 % (w/v) sorbitol (Sigma‐Aldrich) treatments for ring stages. Growth assays for measuring drug inhibition of in‐cycle, ring to schizont stage parasites have been described previously. Parasites were grown in 1 % haematocrit, at 1 % and 2 % parasitaemia for P. falciparum and P. knowlesi respectively. […] Parasitaemia was measured using a SYBR DNA staining assay on a fluorometer.[33] After the incubation period, supernatants were removed and well contents were resuspended in PBS.

For data set [1], the system named is P. falciparum Dd2 PfATP4^D425E strain. In words: 'compound 49' resistant parasite viability assay (LDH), Dd2 D425E. Type of data set: cell-based. The following applies: Plasmodium falciparum, DD2, 72 h, read-out: Dd2^D425E EC50 (SD). The procedure: (§2) These assays were performed according to a previously described protocol.[16] Briefly, P. falciparum Dd2 strains treated with compound were incubated for 72 h at 37 °C. After incubating for 72 h, plates were frozen at −80 °C and then thawed at room temperature for at least 2 h. LDH activity, a surrogate for parasite growth was measured by the addition of the Malstst reagent mix, followed by incubation for 30 min and absorbance read using a ClarioStar Microplate reader at 650 nm. Values were normalized to DMSO control as a percentage and EC50 and dose response curves generated using GraphPad Prism.

Data set [2] relates to P. falciparum Dd2 parental strain. Put plainly: PfATP4 drug resistant parasite viability assay (LDH), Dd2 parental. Type of data set: cell-based. The following applies: Plasmodium falciparum, DD2, 72 h, read-out: Dd2^parental EC50 (SD). How it is done:
as §2

Data set [3] relates to P. knowlesi YH1 parasites. Put plainly: P. knowlesi viability assay (SYBR green). The following applies: Plasmodium knowlesi, 48 h, read-out: P. knowlesi EC50 (SD) YH1. Type of data set: cell-based. How it is done: (§3) These assays were performed as previously described.[16] […] Parasites were synchronised with 5 % (w/v) sorbitol (Sigma‐Aldrich) treatments for ring stages. […] Parasites were grown in 1 % haematocrit, at 1 % and 2 % parasitaemia for P. falciparum and P. knowlesi respectively. […] Parasitaemia was measured using a SYBR DNA staining assay on a fluorometer.[33] After the incubation period, supernatants were removed and well contents were resuspended in PBS.

Another data set has as its system P. falciparum Dd2. In words: P. falciparum viability assay (SYBR green), Dd2. The format is cell-based. The following applies: Plasmodium falciparum, DD2, 72 h, read-out: P. falciparum parental EC50 (SD) Dd2. The procedure:
as §1

The subject of data set [4] is P. falciparum 3D7 parasites. Put plainly: P. falciparum viability assay (SYBR green), 3D7. The format is cell-based. The following applies: Plasmodium falciparum, 3D7; SYBR green, 72 h; read-out: P. falciparum parental EC50 (SD) 3D7. The procedure: as §3
Data set [5] concerns P. falciparum Dd2 strain with 2.8-fold amplification in PfATP4. Put plainly: 'compound 49' resistant parasite viability assay (LDH), Dd2 2.8 CNV. As to conditions: Plasmodium falciparum, DD2, 72 h, read-out: Dd2^2.8 CNV EC50 (SD). The format is cell-based. How it is done: as §2
Data set [6] deals with P. falciparum Dd2 PfATP4^G358S strain. In words: PfATP4 drug resistant parasite viability assay (LDH), Dd2 G358S. The format is cell-based. As to conditions: Plasmodium falciparum, DD2, 72 h, read-out: Dd2^G358S EC50 (SD). The procedure: as §2
The test system of data set [7] is P. falciparum Dd2 PfATP4^F156L strain. In words: 'compound 49' resistant parasite viability assay (LDH), Dd2 F156L. Type of data set: cell-based. As to conditions: Plasmodium falciparum, DD2, 72 h, read-out: Dd2^F156L EC50 (SD). The procedure: as §2
The subject of data set [8] is P. falciparum (Pf) 3D7 parasites. Put plainly: P. falciparum LDH viability assay. The format is cell-based. The following applies: Plasmodium falciparum, 3D7, 72 h, LDH activity at 72 h; mean and SD of 3 independent experiments. From the text: This assay is a platform assay conducted at the Walter and Eliza Hall Institute and uses a protocol previously decsribed.[30, 31]

Another data set concerns P. falciparum 7G8. In words: Multidrug-resistant parasite viability assay (SYBR green), 7G8. As to conditions: Plasmodium falciparum, 7G8, 72 h, read-out: multidrug resistant P. falciparum strains EC50 (SD) 7G8. The format is cell-based. How it is done:
as §1

The test system of the next data set is P. falciparum CAM3.1. In words: Multidrug-resistant parasite viability assay (SYBR green), CAM3.1. The format is cell-based. As to conditions: Plasmodium falciparum, 72 h, read-out: multidrug resistant P. falciparum strains EC50 (SD) CAM3.1. The procedure:
as §1

In data set [9] the test system is P. falciparum Dd2 PfATP4^triple (I398F, P990R, D1247Y) strain. Put plainly: PfATP4 drug resistant parasite viability assay (LDH), Dd2 triple. The format is cell-based. As to conditions: Plasmodium falciparum, DD2, 72 h, read-out: Dd2^triple EC50 (SD). The procedure:
as §2

A short description of data set [10]: Human HepG2 cytotoxicity assay (Cell Titre Glo). Type of data set: cell-based. As to conditions: HepG2 cells, growth inhibition at 48 h, 4 replicate experiments, read-out: HepG2 CC50 (SD). The text has this: This assay uses Cell TitreGlo as a metabolic maker for human HepG2 cell growth and uses a protocol previously described.[32]
Data set [11] has as its system P. falciparum Dd2 PfATP4^triple (I398F, P990R, D1247Y) strain. Details: method as in Ashton, Dans et al. 10. As to conditions: ref Ashton, Dans et al. 10; cited from earlier work.
For data set [12], the system named is P. falciparum (Pf) 3D7 parasites. Also on record: method as in PMID 36812492, PMID 39134060. As to conditions: Figure 1; cited from earlier work.
For data set [13] the following is noted: Figure 1; cited from earlier work.
On the set-up of data set [14]: method as in PMID 39134060. As to conditions: 25 mg/kg oral dose, 4-day model; recrudescence detected after day 4; cited from earlier work.
Data set [15] relates to P. falciparum Dd2 PfATP4^G358S strain. Details: method as in Ashton, Dans et al. 10. As to conditions: ref Ashton, Dans et al. 10; cited from earlier work.
In data set [16] the test system is P. falciparum Dd2 parental strain. Details: method as in Ashton, Dans et al. 10. The following applies: LDH at 72 h; ref Ashton, Dans et al. 10; cited from earlier work.

Molecules are shown by their SMILES. Where two headings read alike, the source gives them in different places.

The source of these data is article PMC11648822, “Lactam Truncation Yields a Dihydroquinazolinone Scaffold with Potent Antimalarial Activity that Targets PfATP4” (Chemmedchem, 2024).

As for `CN1C(=O)c2ccc(Cl)cc2NC1(C)C(=O)Nc1cccc(Cl)c1` (centres unmarked) [Compound 11, 7‐Chloro‐N‐(3‐chlorophenyl)‐2,3‐dimethyl‐4‐oxo‐1,2,3,4‐tetrahydroquinazoline‐2‐carboxamide], the EC50 – broadly, the concentration at which the effect is half-maximal – is 9 nM with P. falciparum W2^mef; 36 nM in data set [1]; 21 nM in data set [2]; 65 nM in data set [3]; 17 nM in the data set with P. falciparum Dd2; 14 nM in data set [4]. For the same compound, the EC50 in data set [5] is 40 nM; in [6], 44 nM; in data set [7], 41 nM; in [8], 18 nM; with P. falciparum 7G8, 33 nM; with P. falciparum CAM3.1, 13 nM. Further, the EC50 in data set [9] came to 140 nM. In addition, the CC50 (usually the concentration giving 50% cytotoxicity) at 48 h in [10] is above 40000 nM.

In the case of `C[C@H]1Cc2c([nH]c3cc(Cl)c(F)cc23)[C@@]2(N1)C(=O)Nc1ccc(Cl)cc12` [KAE609, reference compound], the EC50 in data set [1] was 2 nM; in data set [5], 3 nM; in [7], 4 nM; in data set [11], 9 nM.

With `CN1C(=O)c2c(F)cc(-c3cnn(C)c3)cc2N2C(=O)CCC12C(=O)Nc1cncc(Cl)c1` (centres unmarked) [S-WJM992 (5)], the 50% effective concentration (EC50) in data set [12] is 8 nM. Also, the “Rat hepatocytes CLint” value in data set [13] is on record as 14 μL/min/10^6 cells. In addition, the effect on parasitemia entry in data set [14] is “cleared parasitemia”.

`N#Cc1cc(NC(=O)[C@H]2c3ccccc3C(=O)N(CC(F)(F)F)[C@@H]2c2cccnc2)ccc1F` [SJ733, reference compound]: the EC50 is 80 nM in data set [1]; above 11000 nM in data set [15]; 129 nM in [5]; 135 nM in data set [7]; 68 nM in [16].
